Test results reported in ChEMBL document CHEMBL6120978, “Anticancer activity of salinomycin quaternary phosphonium salts” (Eur J Med Chem, 2025).
Calls of active or inactive are those of the source. The calls are words filed in the database; no cut-off is given here.

Assays:
[1] = tested on: SW480; assay: Cytotoxicity against human SW480 cells incubated for 72 hrs by MTT assay; type: functional, cell-based; settings: SW480, 72 h
[2] = tested on: SW-620; assay: Cytotoxicity against human SW620 cells incubated for 72 hrs by MTT assay; type: functional, cell-based; settings: SW-620, 72 h
[3] = tested on: PC-3; assay: Cytotoxicity against human PC-3 cells incubated for 72 hrs by MTT assay; type: functional, cell-based; settings: PC-3, 72 h
[4] = tested on: MDA-MB-231; assay: Cytotoxicity against human MDA-MB-231 cells incubated for 72 hrs by MTT assay; type: functional, cell-based; settings: MDA-MB-231, 72 h
[5] = tested on: A549; assay: Cytotoxicity against human A549 cells incubated for 72 hrs by MTT assay; type: functional, cell-based; settings: A549, 72 h
[6] = Cytotoxicity against human HaCaT cells incubated for 72 hrs by MTT assay; type: toxicity, cell-based
[7] = Cytotoxicity against chinese hamster V79 cells incubated for 72 hrs by MTT assay; type: toxicity, cell-based, Cricetulus griseus
[8] = Selectivity index, ratio of IC50 for cytotoxicity against human HaCaT cells to IC50 for cytotoxicity against human SW480 cells; type: toxicity, cell-based; settings: HaCaT cells versus SW480 cells, read-out: Ratio IC50
[9] = Selectivity index, ratio of IC50 for cytotoxicity against human HaCaT cells to IC50 for cytotoxicity against human SW620 cells; type: toxicity, cell-based; settings: HaCaT cells versus SW620 cells, read-out: Ratio IC50
[10] = Selectivity index, ratio of IC50 for cytotoxicity against human HaCaT cells to IC50 for cytotoxicity against human PC-3 cells; type: toxicity, cell-based; settings: HaCaT cells versus PC-3 cells, read-out: Ratio IC50
[11] = Selectivity index, ratio of IC50 for cytotoxicity against human HaCaT cells to IC50 for cytotoxicity against human MDA-MB-231 cells; type: toxicity, cell-based; settings: HaCaT cells versus MDA-MB-231 cells, read-out: Ratio IC50
[12] = Selectivity index, ratio of IC50 for cytotoxicity against human HaCaT cells to IC50 for cytotoxicity against human A549 cells; type: toxicity, cell-based; settings: HaCaT cells versus A549 cells, read-out: Ratio IC50
[13] = Selectivity index, ratio of IC50 for cytotoxicity against chinese hamster V79 cells to IC50 for cytotoxicity against human SW480 cells; type: toxicity, cell-based; settings: V79 cells versus SW480 cells, read-out: Ratio IC50
[14] = Selectivity index, ratio of IC50 for cytotoxicity against chinese hamster V79 cells to IC50 for cytotoxicity against human SW620 cells; type: toxicity, cell-based; settings: V79 cells versus SW620 cells, read-out: Ratio IC50
[15] = Selectivity index, ratio of IC50 for cytotoxicity against chinese hamster V79 cells to IC50 for cytotoxicity against human PC-3 cells; type: toxicity, cell-based; settings: V79 cells versus PC-3 cells, read-out: Ratio IC50
[16] = Selectivity index, ratio of IC50 for cytotoxicity against chinese hamster V79 cells to IC50 for cytotoxicity against human MDA-MB-231 cells; type: toxicity, cell-based; settings: V79 cells versus MDA-MB-231 cells, read-out: Ratio IC50
[17] = Selectivity index, ratio of IC50 for cytotoxicity against chinese hamster V79 cells to IC50 for cytotoxicity against human A549 cells; type: toxicity, cell-based; settings: V79 cells versus A549 cells, read-out: Ratio IC50
[18] = tested on: Staphylococcus aureus; assay: Antimicrobial activity against Staphylococcus aureus NCTC 4163 incubated for 18 hrs by twofold microdilution method; type: functional
[19] = tested on: Staphylococcus aureus; assay: Antimicrobial activity against Staphylococcus aureus ATCC 25923 incubated for 18 hrs by twofold microdilution method; type: functional
[20] = tested on: Staphylococcus aureus; assay: Antimicrobial activity against Staphylococcus aureus ATCC 6538 incubated for 18 hrs by twofold microdilution method; type: functional
[21] = tested on: Staphylococcus aureus; assay: Antimicrobial activity against Staphylococcus aureus ATCC 29213 incubated for 18 hrs by twofold microdilution method; type: functional
[22] = tested on: Staphylococcus epidermidis; assay: Antimicrobial activity against Staphylococcus epidermidis ATCC 12228 incubated for 18 hrs by twofold microdilution method; type: functional
[23] = tested on: Staphylococcus epidermidis; assay: Antimicrobial activity against Staphylococcus epidermidis ATCC 35984 incubated for 18 hrs by twofold microdilution method; type: functional
[24] = tested on: Escherichia coli; assay: Antimicrobial activity against Escherichia coli ATCC 25922 incubated for 18 hrs by twofold microdilution method; type: functional
[25] = tested on: Pseudomonas aeruginosa; assay: Antimicrobial activity against Pseudomonas aeruginosa ATCC 15442 incubated for 18 hrs by twofold microdilution method; type: functional
[26] = tested on: Lipid bilayer; assay: Induction of ionic transport in azolectin bilayer membrane assessed as specific channel-like structure formation in presence of HEPES buffer by electrophysiology technique
[27] = tested on: Lipid bilayer; assay: Induction of ionic transport in azolectin bilayer membrane assessed as irregular disturbance in membrane permeability in presence of HEPES buffer by electrophysiology technique
[28] = tested on: Lipid bilayer; assay: Induction of ionic transport in azolectin bilayer membrane assessed as membrane rupture in presence of HEPES buffer by electrophysiology technique
[29] = tested on: A549; assay: Induction of mitochondrial respiration in human A549 cells assessed as fold increase in oxygen consumption rate at 1 uM by Oxygraph-2K system; type: functional
[30] = tested on: A549; assay: Induction of mitochondrial respiration in human A549 cells assessed as decrease in oxygen consumption rate at 3 uM by Oxygraph-2K system; type: functional, cell-based
[31] = tested on: Lipid bilayer; assay: Induction of current generation in azolectin bilayer membrane in presence of HEPES buffer by electrophysiology technique

## CC[C@@H](C(=O)[C@@H](C)[C@@H](O)[C@H](C)[C@@H]1O[C@@H]([C@@H](CC)C(=O)OCCCC[P+](c2ccccc2)(c2ccccc2)c2ccc(N(C)C)cc2)CC[C@@H]1C)[C@H]1O[C@]2(C=C[C@@H](O)[C@]3(CC[C@@](C)([C@H]4CC[C@](O)(CC)[C@H](C)O4)O3)O2)[C@H](C)C[C@@H]1C.[Br-]
[1]
  IC50: 570 nM
[2]
  IC50: 110 nM
[3]
  IC50: 2520 nM
[4]
  IC50: 780 nM
[5]
  IC50: 750 nM
[6]
  IC50 at 72 h: 1280 nM
[7]
  IC50 at 72 h: 370 nM
[8]
  selectivity ratio: 2.2
[9]
  selectivity ratio: 11.6
[10]
  selectivity ratio: 0.5
[11]
  selectivity ratio: 1.6
[12]
  selectivity ratio: 1.7
[13]
  selectivity ratio: 0.6
[14]
  selectivity ratio: 3.4
[15]
  selectivity ratio: 0.1
[16]
  selectivity ratio: 0.5
[17]
  selectivity ratio: 0.5
[18]
  MIC: 2 µg/mL
[19]
  MIC: 4 µg/mL
[20]
  MIC: 2 µg/mL
[21]
  MIC: 2 µg/mL
[22]
  MIC: 4 µg/mL
[23]
  MIC: 4 µg/mL
[24]
  MIC: > 256 µg/mL
[25]
  MIC: > 256 µg/mL
[26]
  Activity: inactive
[27]
  Activity: inactive
[28]
  Activity: inactive
[29]
  fold change (FC): 2.5
[30]
  Activity: inactive
[31]
  Activity: Dose-dependent-effect

## CC[C@@H](C(=O)[C@@H](C)[C@@H](O)[C@H](C)[C@@H]1O[C@@H]([C@@H](CC)C(=O)OCCCC[P+](c2ccc(C)cc2)(c2ccc(C)cc2)c2ccc(C)cc2)CC[C@@H]1C)[C@H]1O[C@]2(C=C[C@@H](O)[C@]3(CC[C@@](C)([C@H]4CC[C@](O)(CC)[C@H](C)O4)O3)O2)[C@H](C)C[C@@H]1C.[Br-]
[1]
  IC50: 440 nM
[2]
  IC50: 500 nM
[3]
  IC50: 2210 nM
[4]
  IC50: 830 nM
[5]
  IC50: 810 nM
[6]
  IC50 at 72 h: 1020 nM
[7]
  IC50 at 72 h: 3770 nM
[8]
  selectivity ratio: 2.3
[9]
  selectivity ratio: 2
[10]
  selectivity ratio: 0.5
[11]
  selectivity ratio: 1.2
[12]
  selectivity ratio: 1.3
[13]
  selectivity ratio: 8.6
[14]
  selectivity ratio: 7.5
[15]
  selectivity ratio: 1.7
[16]
  selectivity ratio: 4.5
[17]
  selectivity ratio: 4.7
[18]
  MIC: 2 µg/mL
[19]
  MIC: 4 µg/mL
[20]
  MIC: 2 µg/mL
[21]
  MIC: 4 µg/mL
[22]
  MIC: 4 µg/mL
[23]
  MIC: 4 µg/mL
[24]
  MIC: > 256 µg/mL
[25]
  MIC: > 256 µg/mL
[26]
  Activity: inactive
[27]
  Activity: inactive
[28]
  Activity: inactive
[29]
  fold change (FC): 2.5
[30]
  Activity: inactive
[31]
  Activity: Dose-dependent-effect
